Assay results from patent US20250186433A1, “ACSS2 INHIBITORS AND METHODS OF USE THEREOF” (EpiVario, Inc., priority 2017, published 2025).
“Also recorded” adds a separate entry of the source.

How the values were obtained:
[1] = Pharmacokinetic profile in mice (oral and iv); format: in vivo; details: mouse, plasma
[2] = tested on: HCT116; test: In-vivo model that does not utilize acetate (HCT116); details: daily oral dosing
[3] = molecular target: T1, AACS (Homo sapiens, UniProt Q86V21); test: Acyl-CoA synthetases selectivity panel: AACS; format: biochemical; details: human recombinant protein, substrate acetoacetyl, AMP readout by HPLC; read-out: HPLC based activity assays IC50 (UM) AACS
T1 construct: purchased Cusabio, China
T1 sequence (Q86V21 1-672): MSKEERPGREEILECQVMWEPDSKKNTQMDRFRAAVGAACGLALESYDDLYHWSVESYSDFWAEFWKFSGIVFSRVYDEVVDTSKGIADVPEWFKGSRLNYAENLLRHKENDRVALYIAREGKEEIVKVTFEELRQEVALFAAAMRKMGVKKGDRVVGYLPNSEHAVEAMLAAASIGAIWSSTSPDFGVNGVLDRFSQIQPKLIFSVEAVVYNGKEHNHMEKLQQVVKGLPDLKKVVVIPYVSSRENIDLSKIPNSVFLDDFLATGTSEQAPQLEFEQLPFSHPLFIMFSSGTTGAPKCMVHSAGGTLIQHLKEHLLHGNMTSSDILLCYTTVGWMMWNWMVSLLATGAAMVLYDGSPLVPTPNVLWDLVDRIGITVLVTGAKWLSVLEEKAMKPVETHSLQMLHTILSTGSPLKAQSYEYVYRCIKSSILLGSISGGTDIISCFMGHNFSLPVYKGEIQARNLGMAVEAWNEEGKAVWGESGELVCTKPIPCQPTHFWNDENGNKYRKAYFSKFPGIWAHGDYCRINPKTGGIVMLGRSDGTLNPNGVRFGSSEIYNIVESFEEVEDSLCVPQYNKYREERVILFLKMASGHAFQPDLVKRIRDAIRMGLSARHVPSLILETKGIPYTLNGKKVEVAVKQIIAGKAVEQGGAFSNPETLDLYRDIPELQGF
Text: (§1) The biochemical assays for testing the selectivity of the compounds according to this invention, were done using human recombinant proteins (Cusabio, China). The readout of the assays was AMP levels, the […] of the reactions, by HPLC method. The acyl substrates (Sigma-Aldrich) of the assays were as followed: ACSS1/ACSS2—Acetate, AACS-Acetoacetyl, ACSF2—Octanoate and ACSL5—Palmitate. The protein in this panel include ACSS1, the closest homolog of ACSS2, in addition to representative short/medium/long chain acyl-CoA syntatases.

[4] = molecular target: T2, ACSS1 (Homo sapiens, UniProt Q9NUB1); test: Acyl-CoA synthetases selectivity panel: ACSS1; format: biochemical; details: human recombinant protein, substrate acetate, AMP readout by HPLC; read-out: HPLC based activity assays IC50 (UM) ACSS1
T2 construct: purchased Cusabio, China
T2 sequence (Q9NUB1 38-689): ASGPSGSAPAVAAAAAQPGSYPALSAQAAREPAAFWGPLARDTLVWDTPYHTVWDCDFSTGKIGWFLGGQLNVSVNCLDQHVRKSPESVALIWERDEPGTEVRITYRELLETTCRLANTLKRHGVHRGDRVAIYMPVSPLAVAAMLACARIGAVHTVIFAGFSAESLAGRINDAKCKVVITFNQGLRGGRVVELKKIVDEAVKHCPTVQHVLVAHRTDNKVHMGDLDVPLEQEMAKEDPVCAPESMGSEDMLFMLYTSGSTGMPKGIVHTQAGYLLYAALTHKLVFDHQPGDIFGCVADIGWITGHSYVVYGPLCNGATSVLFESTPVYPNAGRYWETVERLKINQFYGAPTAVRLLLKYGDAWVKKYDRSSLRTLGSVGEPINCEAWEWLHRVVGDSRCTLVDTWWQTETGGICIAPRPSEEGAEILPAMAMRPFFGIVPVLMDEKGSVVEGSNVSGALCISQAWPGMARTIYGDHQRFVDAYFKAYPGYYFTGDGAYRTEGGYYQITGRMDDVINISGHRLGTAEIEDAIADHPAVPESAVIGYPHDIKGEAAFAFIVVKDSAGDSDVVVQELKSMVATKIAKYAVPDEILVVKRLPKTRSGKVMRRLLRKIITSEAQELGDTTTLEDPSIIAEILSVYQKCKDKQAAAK
Text: as §1

[5] = tested on: MDA-MB-468 breast cancer cells xenograft; test: In-vivo efficacy study in MDA-MB-468 breast cancer cells xenograft; details: 100 mg/kg orally once daily; female NMRI nude mice
Protocol: An in-vivo efficacy study was carried out by Charles-River Laboratories at the Freiburg, Germany site.
Tumor fragments from Breast cancer cell line MDA-MB-468 passaged as subcutaneous xenograft were subcutaneously implanted into female NMRI nude mice (Crl:NMRI-Foxnlnu). The animals were randomized into groups (n=10) when tumors volume reached 50 to 250 mm3. […] Body weights and tumor volume [mm3] by caliper were measured twice weekly.

[6] = molecular target: T3, ACSS2 (Homo sapiens, UniProt Q9NR19); test: Acyl-CoA synthetases selectivity panel: ACSS2; format: biochemical; set-up: purchased Cusabio, China; details: human recombinant protein, substrate acetate, AMP readout by HPLC; read-out: HPLC based activity assays IC50 (UM) ACSS2
Text: as §1

[7] = molecular target: T3, ACSS2; test: cell-based
Protocol: Testing the inhibitory effect of compounds on the cellular activity of ACSS2 was done by tracing the incorporation of ^13C from ^13C-acetate into fatty-acids in MDA-MB-468 cells under hypoxic conditions of 1% O2. The assay was done for 5 hours in DMEM with 5.5 mM glucose, 1 mM sodium Pyruvate, 0.65 mM Glutamine, 3.5 ug/ml Biotin, 1% dialyzed serum, 0.5 mM 13 C-acetate and with different concentrations of the inhibitors. At the end of the incubation, the cells were washed with cold PBS, harvested into glass tubes and undergo saponification. The level of ^13C incorporation into Palmitate was done by LC-MS analysis and the level of inhibition was calculated with PRISM software.

[8] = molecular target: T3, ACSS2; test: biochemical
Protocol: The assay is based on a coupling reaction with Pyrophosphatase: ACSS2 is converting ATP+CoA+Acetate=>AMP+pyrophosphate+Acetyl-CoA (Ac-CoA). Pyrophosphatase converts pyrophosphate, a product of the ACSS2 reaction, to phosphate which can be detected by measuring the absorbance at 620 nm after incubation with the Biomol green reagent (Enzo life Science, BML-AK111).
At the end of the reaction, Biomol Green was added for 30 minutes at RT and the activity was measured by reading the absorbance at 620 nm.

[9] = molecular target: T4, ACSF2 (Homo sapiens, UniProt Q96CM8); test: Acyl-CoA synthetases selectivity panel: ACSF2; format: biochemical; details: human recombinant protein, substrate octanoate, AMP readout by HPLC; read-out: HPLC based activity assays IC50 (UM) ACSF2
T4 construct: purchased Cusabio, China
T4 sequence (Q96CM8 42-615): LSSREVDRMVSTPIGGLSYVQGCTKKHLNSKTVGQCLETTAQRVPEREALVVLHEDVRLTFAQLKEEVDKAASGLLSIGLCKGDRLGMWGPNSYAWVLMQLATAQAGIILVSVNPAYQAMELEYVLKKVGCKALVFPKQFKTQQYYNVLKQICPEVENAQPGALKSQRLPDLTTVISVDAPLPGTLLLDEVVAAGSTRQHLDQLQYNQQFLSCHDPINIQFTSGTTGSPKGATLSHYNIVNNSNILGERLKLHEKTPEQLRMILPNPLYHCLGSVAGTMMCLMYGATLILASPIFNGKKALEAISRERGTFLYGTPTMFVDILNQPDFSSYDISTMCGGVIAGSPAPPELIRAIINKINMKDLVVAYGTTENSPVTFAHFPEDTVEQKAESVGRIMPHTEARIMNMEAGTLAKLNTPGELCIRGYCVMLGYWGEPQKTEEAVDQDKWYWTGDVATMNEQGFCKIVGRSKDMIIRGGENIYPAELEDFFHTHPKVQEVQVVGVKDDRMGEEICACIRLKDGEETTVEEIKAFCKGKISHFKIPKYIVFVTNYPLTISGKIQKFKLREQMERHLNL
Text: as §1

[10] = molecular target: T5, ACSL5 (Homo sapiens, UniProt Q9ULC5); test: Acyl-CoA synthetases selectivity panel: ACSL5; format: biochemical; details: human recombinant protein, substrate palmitate, AMP readout by HPLC; read-out: HPLC based activity assays IC50 (UM) ACSL5
T5 construct: purchased Cusabio, China
T5 sequence (Q9ULC5 1-683): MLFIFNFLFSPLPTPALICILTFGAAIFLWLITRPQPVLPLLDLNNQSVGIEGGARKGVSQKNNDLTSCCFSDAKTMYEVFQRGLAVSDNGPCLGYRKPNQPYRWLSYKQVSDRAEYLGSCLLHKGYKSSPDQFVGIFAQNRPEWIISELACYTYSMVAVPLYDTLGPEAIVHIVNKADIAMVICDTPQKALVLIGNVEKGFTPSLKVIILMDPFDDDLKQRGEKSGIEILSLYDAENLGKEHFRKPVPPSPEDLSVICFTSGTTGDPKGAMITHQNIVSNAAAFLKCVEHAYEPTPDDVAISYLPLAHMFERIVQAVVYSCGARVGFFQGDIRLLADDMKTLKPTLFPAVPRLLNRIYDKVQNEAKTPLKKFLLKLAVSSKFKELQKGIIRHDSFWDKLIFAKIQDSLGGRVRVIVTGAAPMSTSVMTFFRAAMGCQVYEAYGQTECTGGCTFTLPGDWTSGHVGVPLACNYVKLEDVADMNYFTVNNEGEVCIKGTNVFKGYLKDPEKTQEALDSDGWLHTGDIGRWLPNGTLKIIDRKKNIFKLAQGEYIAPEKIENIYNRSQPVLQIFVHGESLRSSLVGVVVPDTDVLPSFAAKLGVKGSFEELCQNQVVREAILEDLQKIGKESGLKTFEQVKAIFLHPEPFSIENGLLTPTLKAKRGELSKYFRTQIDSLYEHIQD
Text: as §1

T3 sequence (Q9NR19 whole entry): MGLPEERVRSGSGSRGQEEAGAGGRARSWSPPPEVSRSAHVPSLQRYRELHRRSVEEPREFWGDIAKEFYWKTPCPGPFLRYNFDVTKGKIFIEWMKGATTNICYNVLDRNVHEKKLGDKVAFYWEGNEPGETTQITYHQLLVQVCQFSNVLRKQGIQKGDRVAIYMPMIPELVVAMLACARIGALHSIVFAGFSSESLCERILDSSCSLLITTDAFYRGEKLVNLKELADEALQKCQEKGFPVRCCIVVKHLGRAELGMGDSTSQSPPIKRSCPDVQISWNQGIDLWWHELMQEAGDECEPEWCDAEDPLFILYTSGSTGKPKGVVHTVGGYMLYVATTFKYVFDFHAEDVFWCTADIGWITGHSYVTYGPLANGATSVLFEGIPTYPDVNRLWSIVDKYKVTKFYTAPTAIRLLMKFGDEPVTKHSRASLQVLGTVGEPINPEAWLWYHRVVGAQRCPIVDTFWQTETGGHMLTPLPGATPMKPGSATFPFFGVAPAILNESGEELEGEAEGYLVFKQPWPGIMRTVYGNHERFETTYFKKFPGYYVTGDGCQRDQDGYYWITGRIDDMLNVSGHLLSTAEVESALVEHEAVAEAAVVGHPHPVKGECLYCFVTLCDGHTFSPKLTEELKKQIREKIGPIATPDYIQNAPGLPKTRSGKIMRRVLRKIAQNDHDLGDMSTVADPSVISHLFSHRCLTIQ

- bioavailability ([1]; oral 5 mg/kg, iv 1 mg/kg): 74%
- clearance ([1]; oral 5 mg/kg, iv 1 mg/kg): 0.59 mL/min/kg
- half-life ([1]; po, single 5 mg/kg dose, read-out: t½ (converted)): 6.51 h
- IC50 [3]: 171 µM
- IC50 [4]: 1 to 10 µM
- IC50 [6]: < 0.001 µM
- IC50 [7]: 0.0005 to 0.05 µM
- IC50 [8]: 0.01 to 6 nM
- IC50 [9]: 152 µM
- IC50 [10]: > 100 µM
SMILES: COc1ccc(N2N=C(C)C(C(=O)Nc3cccc(C(C)(F)F)c3)C2=O)cc1 (stereo not drawn) [compound 265, N-(3-(1,1-difluoroethyl)phenyl)-1-(4-methoxyphenyl)-3-methyl-5-oxo-4,5-dihydro-1H-pyrazole-4-carboxamide]
- efficacy in a model that does not utilize acetate (HCT116) [2]: no efficacy
- tumor growth in MDA-MB-468 xenograft model [5]: significant tumor growth delay; also recorded: inhibits tumor growth
